Data on two compounds can be found in patent publication US20180148418A1, “AMIDO-SUBSTITUTED CYCLOHEXANE DERIVATIVES” (Bayer Pharma Aktiengesellschaft, priority 2015, published 2018).

For assay [1], the system named is wildtype Wnt signaling cascade. In words: HEK293 TOP assay (Super TopFlash luciferase reporter, Wnt-3a stimulated). The settings on record: Homo sapiens, HEK293, 16 h, HEK293 TOP reporter cells, Wnt3a at EC50, 16 hours. The assay is classed as cell-based. Summed up:
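HEK293 cells stably carrying Super TopFlash (TOP) run in parallel with FOP cells, 10000/well plated 24 h ahead, stimulated with recombinant human Wnt-3a. Compounds tested 50 μM to 15 nM in 3.16-fold steps in CAFTY buffer pH 7.4 with 2 mM Ca^2+ and 0.01% BSA; luciferase read-out.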

Another assay concerns the target T1, TNKS1 (Homo sapiens, UniProt O95271).
T1 construct: purchased BPS Bioscience, San Diego, USA 80579 (TNKS1 Histone Ribosylation Assay Kit)
T1 sequence (O95271 1-1327): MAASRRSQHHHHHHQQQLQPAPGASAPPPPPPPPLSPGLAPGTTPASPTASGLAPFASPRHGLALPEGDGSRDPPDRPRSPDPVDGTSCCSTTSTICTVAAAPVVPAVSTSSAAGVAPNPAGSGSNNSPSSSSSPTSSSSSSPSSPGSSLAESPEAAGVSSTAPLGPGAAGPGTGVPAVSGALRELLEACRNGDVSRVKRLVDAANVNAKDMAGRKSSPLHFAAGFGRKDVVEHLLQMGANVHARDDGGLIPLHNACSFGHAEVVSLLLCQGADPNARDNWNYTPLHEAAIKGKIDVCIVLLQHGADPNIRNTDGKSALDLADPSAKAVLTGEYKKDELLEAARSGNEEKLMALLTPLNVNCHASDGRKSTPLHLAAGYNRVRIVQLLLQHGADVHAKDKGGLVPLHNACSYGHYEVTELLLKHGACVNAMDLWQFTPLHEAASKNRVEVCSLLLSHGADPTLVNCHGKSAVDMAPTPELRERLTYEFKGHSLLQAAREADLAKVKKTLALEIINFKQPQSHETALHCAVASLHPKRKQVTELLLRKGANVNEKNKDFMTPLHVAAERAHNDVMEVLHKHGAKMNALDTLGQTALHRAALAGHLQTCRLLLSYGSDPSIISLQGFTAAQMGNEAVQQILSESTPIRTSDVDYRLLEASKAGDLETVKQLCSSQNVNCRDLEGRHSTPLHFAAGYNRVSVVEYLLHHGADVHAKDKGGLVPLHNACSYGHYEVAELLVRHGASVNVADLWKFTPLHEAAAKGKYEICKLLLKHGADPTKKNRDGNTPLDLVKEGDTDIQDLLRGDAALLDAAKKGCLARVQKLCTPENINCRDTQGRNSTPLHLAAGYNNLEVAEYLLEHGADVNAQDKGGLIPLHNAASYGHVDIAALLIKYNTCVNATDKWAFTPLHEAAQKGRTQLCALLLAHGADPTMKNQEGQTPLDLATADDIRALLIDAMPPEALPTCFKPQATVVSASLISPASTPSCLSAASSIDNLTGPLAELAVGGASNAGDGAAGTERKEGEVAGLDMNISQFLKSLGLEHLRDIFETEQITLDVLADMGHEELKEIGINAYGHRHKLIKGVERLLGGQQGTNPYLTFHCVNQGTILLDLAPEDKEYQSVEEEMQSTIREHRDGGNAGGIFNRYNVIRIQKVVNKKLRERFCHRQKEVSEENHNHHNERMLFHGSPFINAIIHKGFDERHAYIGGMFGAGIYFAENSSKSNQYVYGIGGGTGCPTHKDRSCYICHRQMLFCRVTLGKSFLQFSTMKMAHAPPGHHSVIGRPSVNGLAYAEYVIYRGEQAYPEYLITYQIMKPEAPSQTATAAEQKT
In words: TNKS1 Assay B (auto-parsylation, [3H]-NAD+ SPA). The settings on record: 6 nM TNKS1, auto-parsylation, over night at room temperature. It is filed as biochemical. Here is the method: The potency of selected compounds according to the invention was assessed applying a modified in vitro inhibition assay. Here, the TNKS1 catalyzed NAD^+-dependent ribosylation of the enzyme itself (auto-parsylation) was detected using [^3H]-NAD^+ as substrate and applying the scintillation proximity assay (SPA) method to detect tritium-labeled, parsylated TNKS1. The intensity of the readout signal is proportional to the incorporated [^3H]-NAD^+. Inhibition of TNKS1 leads to a decreased incorporation of [^3H]-NAD^+ and consequently to a lower readout signal intensity. The concentration of a test compound which inhibits the enzyme activity by 50% (corresponds to half of the normed readout signal intensity) is reported as IC50.
Protocol Auto-Parsylation Assay
The assay was conducted in a 96 well MTP format with the identical TNKS1 enzyme sample and NAD^+ sample as in the histone ribosylation assay with the following modifications: TNKS1 enzyme sample was diluted with a modified assay buffer (50 mM MES pH 7.0, 1 mM DTT, 0.01% Triton X-100) to a final concentration of 6 nM TNKS1 and 10×NAD^+ solution was diluted with the modified assay buffer (s. above) to a final 0.445×NAD^+ solution doped with 100 Bq/μl [^3H]-NAD^+[Catalog #NET443H050UC, Perkin Elmer, Waltham, Mass., USA]. Substrate solution (10 μl) was incubated with different test compound concentrations (2.5 ul in 10% DMSO in modified assay buffer) or control (2.5 ul 10% DMSO in modified assay buffer only) and enzyme (10 μl) over night at room temperature. Incorporated tritium was measured after addition of 50 μl SPA beads (1 mg/ml) [Catalog #RPNQ0095 20 mg/ml, Perkin Elmer, Waltham, Mass., USA; diluted 1:10 with Dulbecco's phosphate buffered saline, PBS Catalog #D8537, Sigma-Aldrich, Steinheim, Germany] and detection of the photon emission with a beta count plate reader [Wallac MicroBeta®, Perkin Elmer, Waltham, Mass., USA].

Assay [2] deals with HEK293 cells cotransfected with the FOP control vector. The experiment in a line: HEK293 FOP assay (control reporter with non-functional TCF elements). The assay is classed as cell-based. As to conditions: Homo sapiens, 16 hours. An outline of the steps: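 Stable HEK293 line carrying FOP control reporter (randomized non-functional TCF sites, with pcDNA3), Geneticin-selected, plated 24 h before assay. Stimulated with recombinant human Wnt-3a (2500-5 ng/ml) and compounds 50 μM–15 nM (3.16-fold steps) in CAFTY buffer pH 7.4 with 2 mM Ca2+, 0.01% BSA, run parallel to TOP line.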

The target in another assay is T2, TNKS2 (Homo sapiens, UniProt Q9H2K2).
T2 construct: purchased BPS Bioscience, San Diego, USA 80572 (TNKS2 Histone Ribosylation Assay Kit)
T2 sequence (Q9H2K2 1-1166): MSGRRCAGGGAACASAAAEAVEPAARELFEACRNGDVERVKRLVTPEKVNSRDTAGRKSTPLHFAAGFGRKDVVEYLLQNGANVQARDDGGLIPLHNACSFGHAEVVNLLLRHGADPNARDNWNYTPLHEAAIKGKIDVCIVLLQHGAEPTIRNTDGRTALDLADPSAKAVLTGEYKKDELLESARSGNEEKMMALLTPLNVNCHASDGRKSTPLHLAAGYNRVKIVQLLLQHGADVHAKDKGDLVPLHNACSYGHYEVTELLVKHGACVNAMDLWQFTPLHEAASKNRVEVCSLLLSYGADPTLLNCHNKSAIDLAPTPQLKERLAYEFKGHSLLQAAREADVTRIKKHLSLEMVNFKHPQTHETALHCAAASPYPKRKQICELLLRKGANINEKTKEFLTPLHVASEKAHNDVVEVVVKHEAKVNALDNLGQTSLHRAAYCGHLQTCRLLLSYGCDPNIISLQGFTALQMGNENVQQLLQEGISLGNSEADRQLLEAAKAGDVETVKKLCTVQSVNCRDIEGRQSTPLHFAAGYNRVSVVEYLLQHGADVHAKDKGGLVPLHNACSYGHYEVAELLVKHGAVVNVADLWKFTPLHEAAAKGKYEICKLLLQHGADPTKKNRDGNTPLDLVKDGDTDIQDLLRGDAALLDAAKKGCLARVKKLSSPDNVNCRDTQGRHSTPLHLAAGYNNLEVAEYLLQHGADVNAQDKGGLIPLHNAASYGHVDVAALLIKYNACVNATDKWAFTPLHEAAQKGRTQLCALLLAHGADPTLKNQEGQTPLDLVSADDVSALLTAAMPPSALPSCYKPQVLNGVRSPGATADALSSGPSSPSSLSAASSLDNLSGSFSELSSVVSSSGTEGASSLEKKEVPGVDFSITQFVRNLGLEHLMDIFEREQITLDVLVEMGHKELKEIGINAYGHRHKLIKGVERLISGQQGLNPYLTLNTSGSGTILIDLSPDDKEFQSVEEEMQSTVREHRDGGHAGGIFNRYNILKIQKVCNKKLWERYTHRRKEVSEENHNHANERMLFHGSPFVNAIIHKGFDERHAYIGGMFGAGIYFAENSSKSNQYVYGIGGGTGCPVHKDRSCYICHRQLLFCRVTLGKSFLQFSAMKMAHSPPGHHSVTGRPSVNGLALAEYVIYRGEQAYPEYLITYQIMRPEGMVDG
The experiment in a line: TNKS2 Assay B (auto-parsylation, [3H]-NAD+ SPA). The assay is classed as biochemical. The settings on record: 6 nM TNKS2, auto-parsylation, over night at room temperature.

As a reminder, the IC50 is the midpoint of a concentration-inhibition curve. Higher therefore signals weaker potency. For `O=C(N[C@H]1CC[C@H](C(=O)Nc2cc(N3CCOCC3)ccc2Cl)CC1)c1[nH]cnc1C(=O)N1CC(F)(F)C1` [Example 92, N-(trans-4-{[2-chloro-5-(morpholin-4-yl)phenyl]carbamoyl}cyclohexyl)-4-[(3,3-difluoroazetidin-1-yl)carbonyl]-1H-imidazole-5-carboxamide], the concentration for half-maximal inhibition (IC50) in assay [1] was 3.2 µM; at TNKS1, over 10 µM; in assay [2], 21 µM.
`O=C(NC1CC1)c1nc[nH]c1C(=O)N[C@H]1CC[C@]2(CCN(c3ccc(F)cc3Cl)C2=O)CC1` [Example 338, N^5-[(cis)-2-(2-chloro-4-fluorophenyl)-1-oxo-2-azaspiro[4.5]dec-8-yl]-N^4-cyclopropyl-1H-imidazole-4,5-dicarboxamide]: the IC50 was over 10 µM at TNKS2, 1.9 µM in assay [1] and 18 µM in assay [2].
